The source of these data is US10005767B2, “Compositions and methods for inhibition of the JAK pathway” (Rigel Pharmaceuticals, Inc., priority 2009, dated 2018).

Where a name gives a salt, the structure may show the parent alone. Some results are limits rather than exact numbers.

For one experiment, the system named is human primary T-cells, IL-2 stimulated proliferation (JAK-1 and JAK-3 dependent; reported as JAK3 activity). Kind of experiment: Human primary T-cell proliferation stimulated by IL-2 (Example 3). In kind it is cell-based. Particulars: Homo sapiens, T-cell, tested under conditions described in Example 3 (IL-2 stimulated human primary T-cell proliferation); read-out: ability to inhibit JAK3 activity, IC50 range (Table V). An outline of the steps:
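Peripheral-blood human T-cells pre-activated via TCR/CD28, IL-2-starved overnight, then cultured 72 h at 37 °C with compound in Yssel's medium containing IL-2 (80 U/mL in cell suspension). Proliferation read as viable-cell ATP by CellTiter-Glo luminescence; reduction versus control taken as JAK pathway inhibition.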
As a reminder, the IC50 is the concentration needed to halve the response being measured. Turning to `Cc1cnc(Nc2ccc(F)c(S(C)(=O)=O)c2)nc1Nc1ccc2oc(=O)[nH]c2c1` [Compound I-242, 5-(2-(4-fluoro-3-(methylsulfonyl)phenylamino)-5-methylpyrimidin-4-ylamino)benzo[d]oxazol-2(3H)-one], the IC50 was less than 500 nM. As to `Cc1cnc(Nc2ccc3c(c2)CCCC(=O)N3C)nc1Nc1ccc2oc(=O)[nH]c2c1` [IV-34, 5-(5-methyl-2-(1-methyl-2-oxo-2,3,4,5-tetrahydro-1H-benzo[b]azepin-7-ylamino)pyrimidin-4-ylamino)benzo[d]oxazol-2(3H)-one], the IC50 is less than 500 nM.

For `Cc1cnc(Nc2cc(C(F)(F)F)cc(C(F)(F)F)c2)nc1Nc1ccc2oc(=O)[nH]c2c1` [Compound I-169, 5-[2-(3,5-Bis-trifluoromethyl-phenylamino)-5-methyl-pyrimidin-4-ylamino]-3H-benzooxazol-2-one], the IC50 was less than 500 nM. Same read-out and setting: with `CCc1ccc(Nc2ncc(C)c(Nc3ccc4oc(=O)[nH]c4c3)n2)cc1` [Compound I-504, 5-(2-(4-ethylphenylamino)-5-methylpyrimidin-4-ylamino)benzo[d]oxazol-2(3H)-one] the figure was less than 500 nM; with `CCC(=O)n1c(=O)oc2ccc(Nc3nc(Nc4ccc(C(N)=O)cc4)ncc3C)cc21` [Compound I-145, 4-[5-Methyl-4-(2-oxo-3-propionyl-2,3-dihydro-benzooxazol-5-ylamino)-pyrimidin-2-ylamino]-benzamide], less than 500 nM; with `Cc1cnc(Nc2cnc(N3CCN(C)CC3)c(F)c2)nc1Nc1ccc2oc(=O)[nH]c2c1` [II-111, N4-(benzo[d]oxazolin-2(3H)-one-5-yl)-N2-[3-fluoro-2-(4-methylpiperazin-1-yl)pyridine-5-yl]-5-methyl-2,4-pyrimidinediamine], less than 500 nM. On to `Cc1cnc(Nc2cccc(C(C)NC(C)C)c2)nc1Nc1ccc2oc(=O)[nH]c2c1` (stereo not shown) [Compound I-209, 5-(2-(3-(1-(isopropylamino)ethyl)phenylamino)-5-methylpyrimidin-4-ylamino)benzo[d]oxazol-2(3H)-one], for which the IC50 was less than 500 nM. Same read-out and setting: next, `CC(=O)NC1CCN(c2ccc(Nc3ncc(C)c(Nc4ccc5oc(=O)[nH]c5c4)n3)cn2)C1` (stereo not shown) [II-81, N-(1-(5-(5-methyl-4-(2-oxo-2,3-dihydrobenzo[d]oxazol-5-ylamino)pyrimidin-2-ylamino)pyridin-2-yl)pyrrolidin-3-yl)acetamide]: less than 500 nM; `Cc1cnc(Nc2ccc(N3CCC(NS(C)(=O)=O)C3)nc2)nc1Nc1ccc2oc(=O)[nH]c2c1` (stereo not shown) [II-93, N-(1-(5-(5-methyl-4-(2-oxo-2,3-dihydrobenzo[d]oxazol-5-ylamino)pyrimidin-2-ylamino)pyridin-2-yl)pyrrolidin-3-yl)methanesulfonamide]: less than 500 nM; `COc1cc(Nc2ncc(C)c(Nc3ccc4oc(=O)[nH]c4c3)n2)cnc1OC` [II-140, N2-(2,3-dimethoxypyridin-5-yl)-5-methyl-N4-(2-oxo-2,3-dihydro-1,3-benzoxazol-5-yl)-2,4-pyrimidinediamine]: less than 500 nM. Turning to `CC(=O)Nc1ccc(Nc2ncc(C)c(Nc3ccc4oc(=O)[nH]c4c3)n2)cc1C(F)(F)F` [Compound I-177, N-{4-[5-Methyl-4-(2-oxo-2,3-dihydro-benzooxazol-5-ylamino)-pyrimidin-2-ylamino]-2-trifluoromethyl-phenyl}-acetamide], the IC50 was less than 500 nM. The same measure, in the same setting: with `Cc1ccc(Nc2ncc(C)c(Nc3ccc4oc(=O)[nH]c4c3)n2)nc1` [IV-52, 5-(5-methyl-2-(5-methylpyridin-2-ylamino)pyrimidin-4-ylamino)benzo[d]oxazol-2(3H)-one] the figure was 500 to 5000 nM; with `Cc1cnc(Nc2ccc(OCCC(C)C)cc2)nc1Nc1ccc2oc(=O)[nH]c2c1` [Compound I-197, 5-{5-Methyl-2-[4-(3-methyl-butoxy)-phenylamino]-pyrimidin-4-ylamino}-3H-benzooxazol-2-one], more than 10000 nM.

With `CN1CCN(c2ccc(Nc3ncc(F)c(Nc4ccc5oc(=O)n(C)c5c4)n3)cn2)CC1` [II-24, N2-(6-(4-methylpiperazin-1-yl)pyridin-3-yl)-N4-(3-methyl-2-oxo-2,3-dihydrobenzo[d]oxazol-5-yl)-5-fluoropyrimidine-2,4-diamine], the IC50 was in the range of 500 to 5000 nM. As to `Cc1cnc(Nc2ccc3c(c2)C(=O)N(C)C/C=C\C3)nc1Nc1ccc2oc(=O)[nH]c2c1` [IV-10, (Z)-2-Methyl-9-[5-methyl-4-(2-oxo-2,3-dihydro-benzooxazol-5-ylamino)-pyrimidin-2-ylamino]-3,6-dihydro-2H-benzo[c]azocin-1-one], the IC50 was less than 500 nM. The same measure, in the same setting: with `Cc1cc(Nc2ncc(C)c(Nc3ccc4oc(=O)[nH]c4c3)n2)c(C)cc1Cl` [Compound I-176, 5-[2-(4-Chloro-2,5-dimethyl-phenylamino)-5-methyl-pyrimidin-4-ylamino]-3H-benzooxazol-2-one] the figure was 500 to 5000 nM; with `Cc1cnc(Nc2cnc(N3C[C@@H]4C[C@H]3CN4C)c(C(F)(F)F)c2)nc1Nc1ccc2oc(=O)[nH]c2c1` [II-109, N4-(benzo[d]oxazolin-2(3H)-one-5-yl)-5-methyl-N2-[2-((1S,4S)-5-methyl-2,5-diazabicyclo[2.2.1]heptan-2-yl)-3-trifluoromethylpyridine-5-yl]-2,4-pyrimidinediamine], less than 500 nM. Same read-out and setting: next, `Cc1cnc(Nc2ccc(Cl)cc2)nc1Nc1ccc2oc(=O)[nH]c2c1` [Compound I-172, 5-[2-(4-Chloro-phenylamino)-5-methyl-pyrimidin-4-ylamino]-3H-benzooxazol-2-one]: less than 500 nM; `COc1ccc(Nc2ncc(C)c(Nc3ccc4oc(=O)[nH]c4c3)n2)cc1-c1ccncc1` [Compound I-486, 5-(2-(4-methoxy-3-(pyridin-4-yl)phenylamino)-5-methylpyrimidin-4-ylamino)benzo[d]oxazol-2(3H)-one formate salt]: less than 500 nM.

On to `Cc1cnc(Nc2ccc(-c3ccncc3)c(F)c2)nc1Nc1ccc2oc(=O)[nH]c2c1` [Compound I-484, 5-(2-(3-fluoro-4-(pyridin-4-yl)phenylamino)-5-methylpyrimidin-4-ylamino)benzo[d]oxazol-2(3H)-one], for which the IC50 lay within 500 to 5000 nM.

Turning to `CCNC(=O)c1ccc(Nc2ncc(C)c(Nc3ccc4oc(=O)[nH]c4c3)n2)cc1C` [Compound I-171, N-Ethyl-2-methyl-4-[5-methyl-4-(2-oxo-2,3-dihydro-benzooxazol-5-ylamino)-pyrimidin-2-ylamino]-benzamide], the IC50 was less than 500 nM.

Staying with this experiment, now noted: tested under conditions described in Example 3 (IL-2 stimulated human primary T-cell proliferation); read-out: ability to inhibit JAK3 activity, IC50 range (Table V).
As for `Cc1cnc(Nc2cnc(N3CCN(C)CC3)c(C)c2)nc1Nc1ccc2[nH]c(=O)[nH]c2c1` [II-27, N4-(benzimidazolin-2-on-5-yl)-N2-[3-methyl-2-(4-methylpiperazin-1-yl)pyridin-5-yl]-5-methylpyrimidine-2,4-diamine], the half-maximal inhibitory concentration (IC50) was less than 500 nM.

`Cc1ccc(Nc2ncc(C)c(Nc3ccc4[nH]c(=O)oc4c3)n2)cc1NS(C)(=O)=O` [Compound I-104, N2-((3-methylsulfonylamino-4-methyl)phenyl)-N4-(2-oxo-2,3-dihydrobenzo[d]oxazol-6-yl)-5-methylpyrimidine-2,4-diamine]: the IC50 was less than 500 nM. The same measure, in the same setting: with `CS(=O)(=O)Nc1cc(Nc2ncc(F)c(Nc3ccc4oc(=O)[nH]c4c3)n2)ccc1F` [Compound I-90, N2-((4-fluoro-3-methylsulfonylamino)phenyl)-N4-(2-oxo-2,3-dihydrobenzo[d]oxazol-5-yl)-5-fluoropyrimidine-2,4-diamine] the figure was less than 500 nM. Still for that read-out and setting: next, `Cc1cnc(Nc2ccc(CN3CCOCC3)cc2)nc1Nc1ccc2oc(=O)[nH]c2c1` [Compound I-382, 5-methyl-N2-(4-morpholinomethyl)phenyl-N4-(2-oxo-2,3-dihydro-1,3-benzoxazol-5-yl)-2,4-pyrimidinediamine]: less than 500 nM; `CN(c1ccc(Nc2ncc(F)c(Nc3ccc4oc(=O)[nH]c4c3)n2)cc1)S(C)(=O)=O` [Compound I-96, N2-((4-methylsulfonyl-N-methylamino)phenyl)-N4-(2-oxo-2,3-dihydrobenzo[d]oxazol-5-yl)-5-fluoropyrimidine-2,4-diamine]: less than 500 nM.

Consider `CCOC(=O)N1CCN(c2cccc(Nc3ncc(C)c(Nc4ccc5oc(=O)[nH]c5c4)n3)c2)CC1` [Compound I-346, N2-[3-(4-ethoxycarbonyl)piperazino]phenyl-5-methyl-N4-(2-oxo-2,3-dihydro-1,3-benzoxazol-5-yl)-2,4-pyrimidinediamine], for which the IC50 was less than 500 nM. As for `Cc1cc(Nc2ncc(C)c(Nc3ccc4oc(=O)[nH]c4c3)n2)ccc1F` [Compound I-362, N2-(4-fluoro-3-methyl)phenyl-5-methyl-N4-(2-oxo-2,3-dihydro-1,3-benzoxazol-5-yl)-2,4-pyrimidinediamine], the IC50 is less than 500 nM. On the same count and under the same terms, with `COc1ccc(Nc2ncc(C)c(Nc3ccc4oc(=O)[nH]c4c3)n2)cc1OCC(=O)NC1CC1` [Compound I-293, N2-[3-(cyclopropylaminocarbonylmethoxy)-4-methoxy]phenyl-5-methyl-N4-(2-oxo-2,3-dihydro-1,3-benzoxazol-5-yl)-2,4-pyrimidinediamine] the figure was less than 500 nM; with `COC(c1cccc(Nc2ncc(C)c(Nc3ccc4oc(=O)[nH]c4c3)n2)c1)C(F)(F)F` (stereo not shown) [Compound I-396, N2-[3-(1-methoxy-2,2,2-trifluoroethyl)]phenyl-5-methyl-N4-(2-oxo-2,3-dihydro-1,3-benzoxazol-5-yl)-2,4-pyrimidinediamine], less than 500 nM. The same measure, in the same setting: next, `Cc1cnc(Nc2cccc(N3CCOCC3)c2)nc1Nc1ccc2[nH]c(=O)oc2c1` [Compound I-48, N4-(benzo[d]oxazol-2(3H)-on-6-yl)-N2-((3-morpholinyl)phenyl)-5-methylpyrimidine-2,4-diamine]: less than 500 nM.
